Source: US20050142130A1, “Use of angiotensin-(1-7) for preventing and/or reducing the formation of neointima” (priority 2001, published 2005)
Entries after “also recorded” stand apart in the source; their conditions may differ.

Legend:
[1] = system: thoracic aortic rings; assay: Organ bath studies with isolated thoracic aortic rings (endothelial function) from stented, treated rats; assay type: in vivo, Wistar rats
Method: Twenty-eight male Wistar rats (Harlan, Horst, Netherlands) weighing 450 to 520 grams were anesthetized with O2, N2O and isofluorane (Abbot B.V., Hoofddorp, Netherlands). A pre-mounted 2.5×9 mm BeStentTM 2 (Medtronic-Bakken Research, Maastricht, the Netherlands) was implanted in the abdominal aorta as previously described, or a sham operation was performed.^35 Subsequently, an osmotic minipump with a pumping rate of 0.25 μl/hour, lasting for 28 days (Model 2004, Alzet, Charles River Nederland, Maastricht, Netherlands), was implanted subcutaneously for drug delivery via a catheter in the jugular vein. […] rats received angiotensin-(1-7) (Bachem, Weil am Rhein, Germany) (24 μg/kg/hour) (n=7) or saline (0.25 μl/hour) (n=10). Sham-operated rats received saline infusion (n=6). […] At this concentration, Ang-(1-7) binds to the Mas receptor and has subsequent functional effects. Five rats died peri-operatively due to rupture of the aorta. After 28 days, the animals were anesthetized and heparinized with 500 IU intravenously (Leo Pharma B.V., Breda, Netherlands). The abdominal aortas were subsequently harvested, fixed, embedded in methylmetacrylate, sectioned and stained for histological analysis. […] The endothelium-dependant vasodilatation was assessed by a cumulative dose of meatcholine (10 nM to 10 mM). […] Data are expressed as mean value±standard error of the mean (SEM). […]

[2] = system: stented rat abdominal aorta (neointimal formation); assay: Rat abdominal aorta stenting model, histomorphometry and histology after 28 days; assay type: in vivo, Wistar rats
Method: Twenty-eight male Wistar rats (Harlan, Horst, Netherlands) weighing 450 to 520 grams were anesthetized with O2, N2O and isofluorane (Abbot B.V., Hoofddorp, Netherlands). A pre-mounted 2.5×9 mm BeStentTM 2 (Medtronic-Bakken Research, Maastricht, the Netherlands) was implanted in the abdominal aorta as previously described, or a sham operation was performed.^35 Subsequently, an osmotic minipump with a pumping rate of 0.25 μl/hour, lasting for 28 days (Model 2004, Alzet, Charles River Nederland, Maastricht, Netherlands), was implanted subcutaneously for drug delivery via a catheter in the jugular vein. […] rats received angiotensin-(1-7) (Bachem, Weil am Rhein, Germany) (24 μg/kg/hour) (n=7) or saline (0.25 μl/hour) (n=10). Sham-operated rats received saline infusion (n=6). […] At this concentration, Ang-(1-7) binds to the Mas receptor and has subsequent functional effects. Five rats died peri-operatively due to rupture of the aorta. After 28 days, the animals were anesthetized and heparinized with 500 IU intravenously (Leo Pharma B.V., Breda, Netherlands). The abdominal aortas were subsequently harvested, fixed, embedded in methylmetacrylate, sectioned and stained for histological analysis. The endothelial function was tested in isolated thoracic aortic rings. Histomorphometrical analysis was performed on elastica van Gieson-stained sections by measurements of the proximal, middle and distal parts of each stent. To assess neointimal formation, areas within the external elastic lamina (EEL), internal elastic lamina (IEL) and lumen were measured by using digital morphometry. The neointimal area, media area, lumen area and the percentage of stenosis were calculated. The injury and inflammation scores were assessed as described by Schwartz et al. and Kornowski et al. Briefly, each strut was assigned a nominal score from 0 to 3 dependent upon the severity of the injury or inflammation. The average score is calculated by dividing the sum of scores by the number of struts. Total cell density and polymorphonuclear leukocyte density were determined in hematoxylin-eosin stained sections at ×400 magnification and expressed as ×100/mm^2. To assess a single measurement for each stent, the mean values of the proximal, middle and distal parts were calculated. Data are expressed as mean value±standard error of the mean (SEM). Statistical analysis between groups was performed by a student's t-test. Differences in dose-response curves between groups were tested by ANOVA for repeated measures using Greenhouse-Geisser correction for asphericity. Values of p=0.05 were considered statistically significant. For statistical analysis, SPSS software (Chicago, USA) was used.

[3] = in vivo; conditions: male, Wistar, rat, iv, 24 ug/kg/hour
Method: Twenty-eight male Wistar rats (Harlan, Horst, Netherlands) weighing 450 to 520 grams were anesthetized with O2, N2O and isofluorane (Abbot B.V., Hoofddorp, Netherlands). A pre-mounted 2.5×9 mm BeStent™ 2 (Medtronic-Bakken Research, Maastricht, the Netherlands) was implanted in the abdominal aorta as previously described, or a sham operation was performed.^35 Subsequently, an osmotic minipump with a pumping rate of 0.25 μl/hour, lasting for 28 days (Model 2004, Alzet, Charles River Nederland, Maastricht, Netherlands), was implanted subcutaneously for drug delivery via a catheter in the jugular vein. Stented rats received angiotensin-(1-7) (Bachem, Weil am Rhein, Germany) (24 μg/kg/hour) (n=7) or saline (0.25 μl/hour) (n=10). Sham-operated rats received saline infusion (n=6). […] At this concentration, Ang-(1-7) binds to the Mas receptor and has subsequent functional effects. Five rats died peri-operatively due to rupture of the aorta.

[4] = stented rats, 24 μg/kg/hour, mean ± SEM

level at time molar [3]: ~0.918 nM
Compound: CC[C@H](C)[C@H](NC(=O)[C@H](Cc1ccc(O)cc1)NC(=O)[C@@H](NC(=O)[C@H](CCCNC(=N)N)NC(=O)[C@@H](N)CC(=O)O)C(C)C)C(=O)N[C@@H](Cc1c[nH]cn1)C(=O)N1CCC[C@H]1C(=O)O [Ang-(1-7), angiotensin-(1-7)]
Relaxation on endothelium-independent vasodilator sodium nitrite ([1]; sodium nitrite 10 mM, phenylephrine precontracted rings, vs sham and control): equal; also recorded: No differences
Contraction on phenylephrine ([1]; thoracic aortic rings, phenylephrine 1 mM, mean ± SEM): 254±29 μm
Neointimal Area [2, 4]: 0.51 ± 0.05 mm^2
Neointimal Thickness [2, 4]: 112 ± 8 μm
Percentage Stenosis [2, 4]: 10.4 ± 1.0%
IEL Area, change with treatment ([2]; vs saline control): −2%
Mean Injury Score, change with treatment ([2]; vs saline control): 18.2%
Media Area, change with treatment ([2]; vs saline control): −12.8%
Neointimal Area, change with treatment ([2]; vs saline control): −27.1%
Neointimal Thickness, change with treatment ([2]; vs saline control): −20.6%
Percentage Stenosis, change with treatment ([2]; vs saline control): −25.7%
Decrease in neointimal area ([2]; vs saline-treated stented rats): 27%
Decrease in neointimal thickness ([2]; vs saline-treated stented rats): 21%
Decrease in percentage stenosis ([2]; vs saline-treated stented rats): 26%
